Measurements as given in patent US20240108645A1, “SENESCENCE AND SENESCENCE ASSOCIATED SECRETORY PHENOTYPE” (Metro Biotech NSW Pty Ltd, priority 2013, published 2024).
“Also recorded” adds a separate entry of the source.

How the values were obtained:
NAMPT = NAMPT (Homo sapiens, UniProt P43490); conditions: in vitro; Wang et al. (2014) Cell; cited from earlier work
[1] = system: senescence associated β-galactosidase; experiment: Senescence associated β-galactosidase staining of epididymal adipose tissue whole mounts; assay type: in vivo, C57BL6 mice
Method: 18 month old C57BL6 mice were treated with or without […] intraperitoneal apigenin for 7 days. Epidydimal adipose tissue whole mounts were obtained from the mice and stained for expression of senescence associated β-galactosidase according to the chromogenic protocol of Debacq-Chainiaux F et al., Protocols to Detect Senescence-associated beta-galactosidase (SA-betagal) activity, a biomarker of senescent cells in culture and in vivo, Nature Protocols 2009; 4(12): 1798-1806. Cells that have undergone cellular senescence express β-galactosidase and stain blue (which can be seen as a darker grey in FIG. 1A).

[2] = system: senescence associated secretory proteins and cell cycle markers (mRNA); experiment: Quantitative RTPCR of senescence marker mRNA in epidymal adipose tissue; assay type: in vivo, C57BL6 mice; conditions: chow or high fat feed supplemented with 500 mg/kg apigenin
Method: C57BL6 mice were fed chow, chow supplemented with 500 mg/kg apigenin, high fat feed or high fat feed supplemented with 500 mg/kg apigenin for 6 months. At 6 months, mRNA expression levels of senescence associated secretory proteins was determined in epidymal adipose tissue using quantitative RTPCR. At 12 months, mRNA expression levels of cell cycle markers was determined in epidymal adipose tissue using quantitative RTPCR.

p16^INK4A = experiment: Doxorubicin-induced senescence in p16^LUC mice, bioluminescence/CT imaging; assay type: in vivo; conditions: doxorubicin 1 mg/kg i.p. + apigenin 500 mg/kg of food from 4 days before; vs doxorubicin alone
Method: Vehicle control: 10% DMSO in PBS administered intraperitoneally; • 2. Apigenin: administered in diet at 500 mg/kg of food in addition to vehicle control administered i.p.; • 3. […] Apigenin administered in chow diet at 500 mg/kg of food, and doxorubicin administered at 1 mg/kg body weight i.p. Apigenin was administered 4 days prior to administration of doxorubicin. The animals were subjected to bioluminescence/CT imaging (Spectrum-CT instrument, PerkinElmer) as a readout for senescence 24 hours after treatment was completed. Areas of luminescence are shown as lightened areas in FIG. 5 and are indicated by an arrow.

C2C12 myoblasts [3] = experiment: SA-β-Gal activity in C2C12 myoblasts by flow cytometry with C12FDG; assay type: cell-based
Method: To determine the ability of NAD^+ agonists to prevent or reduce senescence associated with treatment with corticoids, C2C12 myoblasts were assayed for SA-β-Gal activity following contact with vehicle, NMN, apigenin, dexamethasone, dexamethasone and NMN, and dexamethasone and apigenin. SA-β-Gal activity was determined using the fluorogenic substrate, C12FDG, by flow cytometry (protocol of Debacq-Chainiaux et al. Nature Protocols 2009). FIG. 7A: […] FIGS. 7B and 7C: […] SA-β-Gal activity was decreased with NMN and/or apigenin. All data are presented as the mean value. * p<0.05, **** p<0.0001, using two-way ANOVA multiple comparisons test.

3T3-L1 adipocytes [4] = experiment: SA-β-gal chromogenic staining of dexamethasone treated 3T3-L1 adipocytes; assay type: cell-based; conditions: 5 days; dexamethasone 1, 0.5, 0.1 or 0.01 mg/ml; 1 mM NMN, 25 mM apigenin
Method: To further investigate the effects of NAD^+ agonists on dexamethasone induced senescence, 3T3-L1 adipocytes were treated for 5 days with ethanol (control), or 1 mg/ml, 0.5 mg/ml, 0.1 mg/ml or 0.01 mg/ml of dexamethasone in combination with either DMSA, 1 mM NMN, 25 mM apigenin, or 1 mM NMN and 25 mM apigenin and subjected to senescence associated beta-galactosidase staining according to the chromogenic protocol of Debacq-Chainiaux F et al Nature Protocols 2009.

3T3-L1 adipocytes [5] = experiment: Intracellular lipid content (oil red o) of 3T3-L1 adipocytes treated with antiretroviral agents; conditions: apigenin 25 μM; cells treated 24 hr with 30 μM AZT, Efavirenz, Lopinavir, Ritonavir
Method: The ability of NAD^+ agonists to reduce or prevent lipodystrophy associated with anti-retroviral compounds was assessed. The ability of NMN to prevent or reduce lipodystrophy was tested by determining the lipid content of 3T3-L1 adipocytes treated with a vehicle, or the antiretroviral agent stavudine, either alone or in combination with NMN.
3T3-L1 adipocytes were treated for 24 hr with the HIV antiretroviral compound stavudine (10 nM) in the presence or absence of NMN (1 mM). Intracellular lipid content was assessed using oil red o staining, which was quantified by reading absorbance at 544 nm. Error bars: SD.
In order to further test the ability of NAD^+ agonists to reduce lipodystrophy associated with antiretroviral agents, 3T3-L1 adipocytes were treated for 24 hr with various antiretroviral compounds (30 μM) in the presence or absence of NMN (1 mM) or apigenin (25 μM). Intracellular lipid content was assessed using oil red o staining, which was quantified by reading absorbance at 544 nm.

[6] = Body weight after whole body γ-irradiation; assay type: in vivo, female C57BL6 mice; conditions: 500cGy whole body γ-irradiation; apigenin 500 mg/kg feed; 20 days post-irradiation
Method: In order to assess the affects of an NAD^+ agonist on the effects of radiation, female C57BL6 (3-4 months old) were exposed to a single dose (500cGy) of whole body γ-irradiation or no irradiation (control). Mice were then maintained on chow diet with or without the addition of the NAD^+ raising compound apigenin to diet (500 mg/kg feed). The weight of the mice was determined at various time points for 20 days post-irradiation.

C2C12 myoblasts [7] = experiment: SA-β-Gal staining of C2C12 myoblasts incubated with various agents; assay type: cell-based
Method: The ability of NAD^+ agonists to reduce senescence associated with various agents was tested by inclubating C2C12 myoblasts with various agents in the presence or absence of NMN or apigenin, and the cells subsequent stained as mentioned above for SA-β-Gal activity. The following agents were tested: [table]

[8] = Body weight after doxorubicin; assay type: in vivo, male C57BL6 mice; conditions: doxorubicin 10 mg/kg i.p. + apigenin 500 mg/kg of diet from 8 days before
Method: Vehicle control: 10% DMSO in PBS administered intraperitoneally; • 2. Apigenin: administered in diet at 500 mg/kg of diet, in addition to vehicle control administered i.p.; • 3. […] Apigenin administered in diet of 500 mg/kg of diet, and doxorubicin administered at 10 mg/kg body weight i.p. Apigenin was administered 8 days prior to administration of a single dose of doxorubicin. Body weight was assessed during the course of the experiment as a read-out of general health and malaise, the results of which are shown in FIG. 11.

CD38 = target: T1, CD38 (Homo sapiens, UniProt P28907); conditions: in vitro; Esande et al. (2013) Diabetes; cited from earlier work
T1 sequence (P28907 1-300): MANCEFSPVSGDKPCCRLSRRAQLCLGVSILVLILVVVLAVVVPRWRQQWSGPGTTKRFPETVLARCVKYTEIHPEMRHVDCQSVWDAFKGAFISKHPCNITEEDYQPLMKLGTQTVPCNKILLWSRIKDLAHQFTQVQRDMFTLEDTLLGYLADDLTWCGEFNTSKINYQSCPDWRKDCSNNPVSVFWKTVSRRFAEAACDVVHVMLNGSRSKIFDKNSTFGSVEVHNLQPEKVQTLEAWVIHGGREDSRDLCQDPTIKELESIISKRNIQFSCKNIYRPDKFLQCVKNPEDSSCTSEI

Chain of NAMPT (P43490 whole entry, species assumed): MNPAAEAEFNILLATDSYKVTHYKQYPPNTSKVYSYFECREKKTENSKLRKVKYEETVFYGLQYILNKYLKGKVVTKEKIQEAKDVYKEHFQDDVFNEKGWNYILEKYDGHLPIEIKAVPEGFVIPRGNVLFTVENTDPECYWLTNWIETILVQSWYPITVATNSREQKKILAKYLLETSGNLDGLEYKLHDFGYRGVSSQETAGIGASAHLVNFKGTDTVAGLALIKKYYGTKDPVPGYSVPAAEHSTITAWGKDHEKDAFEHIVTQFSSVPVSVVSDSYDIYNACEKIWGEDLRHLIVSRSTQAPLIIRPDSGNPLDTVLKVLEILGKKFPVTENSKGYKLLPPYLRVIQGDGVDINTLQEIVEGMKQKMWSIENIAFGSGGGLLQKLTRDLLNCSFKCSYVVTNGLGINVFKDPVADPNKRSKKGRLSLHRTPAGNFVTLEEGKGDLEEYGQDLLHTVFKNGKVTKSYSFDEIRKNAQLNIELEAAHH

Structure (SMILES): OC(CNc1ccccc1)Cn1c2ccc(Br)cc2c2cc(Br)ccc21 (stereo not drawn) [P7C3]
- activity of NAMPT (NAMPT): enhances activity of NAMPT in vitro

Structure (SMILES): O=c1cc(-c2ccc(O)cc2)oc2cc(O)cc(O)c12 [apigenin, 5,7-dihydroxy-2-(4-hydroxyphenyl)-4H-1-benzopyran-4-one]
- SA-β-gal staining of adipose tissue (FIG. 1B) ([1]; 3 and 18 month old mice fed chow or chow supplemented with apigenin): little or no staining
- senescence associated β-galactosidase staining of adipose tissue (FIG. 1A) ([1]; 18 month old mice, 100 mg/day intraperitoneal apigenin for 7 days / chow supplemented daily with 100 mg/kg apigenin, vs chow fed control, 100 mg/kg): less compared to chow fed mice; also recorded: significantly less senescence-associated β-galactosidase expression
- mRNA expression of senescence associated secretory proteins (FIG. 2) ([2]; 6 months): significant reduction in expression of senescence markers
- mRNA expression of cell cycle markers (FIG. 3) ([2]; 12 months): significant reduction in expression of senescence markers
- p16^INK4A induction (bioluminescence) (p16^INK4A): little or no signs of p16^INK4A induction
- SA-β-Gal activity (FIG. 7B) (C2C12 myoblasts [3]; 72 hours, dexamethasone sodium phosphate 250 nM or PBS, NMN 1 mM or apigenin 25 uM): decreased
- SA-β-Gal activity (FIG. 7C) (C2C12 myoblasts [3]; 96 hours, dexamethasone sodium phosphate 250 nM or PBS, NMN 1 mM or apigenin 25 uM): decreased
- percentage of cells which exhibited SA-β-Gal activity following treatment with dexamethasone (C2C12 myoblasts [3]; summary of FIGS. 7A-7C): reduced the percentage of cells which exhibited SA-β-Gal activity
- SA-β-gal staining (blue cells), dexamethasone induced senescence (3T3-L1 adipocytes [4]): reduce or prevent senescence induced by dexamethasone
- lipodystrophy (intracellular lipid content, oil red o) (3T3-L1 adipocytes [5]): reduced lipodystrophy
- body weight after irradiation [6]: prevented this weight loss
- extent of senescence (proportion of cells stained blue, SA-β-Gal activity) (C2C12 myoblasts [7]; agents of the table of b212 with vs without apigenin or NMN): reduce the extent of senescence induced by the agents tested
- extent to which the cells undergo senescence (C2C12 myoblasts [7]; co-administration with AZT, 3TC, zalcitabine, efavirenze, lopinavir, ritonavir, nevirapine, tipranavir, tenofovir, invirase vs agent alone): reduces the extent to which the cells undergo senescence
- extent to which the cells undergo senescence (C2C12 myoblasts [7]; co-administration with PPARγ agonist rosiglitazone vs rosiglitazone alone): reduces the extent to which the cells undergo senescence
- extent to which the cells undergo senescence (C2C12 myoblasts [7]; co-administration with antiprotozoal agent quinacrine vs quinacrine alone): reduces the extent to which the cells undergo senescence
- extent to which the cells undergo senescence (C2C12 myoblasts [7]; co-administration with each of the chemotherapeutic agents listed in b109 vs agent alone): reduces the extent to which the cells undergo senescence
- extent to which the cells undergo senescence (C2C12 myoblasts [7]; co-administration with xanthine oxidase inhibitor allopurinol vs allopurinol alone): reduces the extent to which the cells undergo senescence
- extent to which the cells undergo senescence (C2C12 myoblasts [7]; co-administration with zolendronate vs zolendronate alone): reduces the extent to which the cells undergo senescence
- body weight [8]: rescue in body weight to a degree similar to non-doxorubicin treated animals
- inhibition of CD38 activity (CD38): inhibitors of CD38 activity in vitro
